In patent publication US7771712B2, “Composition for attracting blood sucking arthropods and fruit flies” (priority 2002, dated 2010):

Test system: female A. aegypti
Assay: Y-tube olfactometer, single compound added to index finger scent against pure finger
Assay type: in vivo, Aedes aegypti
Method: In this example, the effect of adding certain compounds to the scent of a finger of a human volunteer was tested, using the set-up as described for example 1. The right and left index finger of each test person were tested in direct competition with simultaneous addition of a single compound to one finger; Martina (A) is highly, Martin (B) medium, and Doris (C) low attractive. The test components were alternately added to the right or to the left finger, respectively. Bars (means of 16 trials±S.E.M.) represent the percentage of mosquitoes trapped in the respective upwind chamber. Black bars represent the pure finger, white bars the mixture of finger plus the odor stimulus indicated below the bar; stimulus labels as described in FIG. 3A; asterisks indicate a significant preference (P<0.05, t-test for paired samples).
A) is a top view of the olfactometer for testing mosquitoes' odour preference. The spatial distribution of odourants in the air are outlined according to the appearance of TiCl4 smoke, which was injected into the olfactometer instead of the odour stimulus. In the arms of the olfactometer the smoke was homogeneous distributed^20. More turbulent odour eddies and filaments emerged in the rectangular chamber, although a steep gradient between both air streams can still be observed in the joined straight tube. For each test, 20 female A. aegypti mosquitoes were used from cultures of Bayer AG in Monheim, 5-15 days old, which had no blood meal before. Details of the olfactometer and the experimental procedure are described elsewhere (Geier, M. & Boeckh, J. Entomol. exp. appl. 92, 9-19 (1999); Geier, M., Bosch, O. J. & Boeckh, J. Chem. Sens. 24, 647-653 (1999)).
At stimulus onset, 20 mosquitoes in the start chamber are set free to fly through the olfactometer. During their zig zag flight through the straight tube they encounter alternately air streams from either arm. Following the favoured air stream during upwind flight the mosquitoes enter the respective upwind chamber where they are counted 30 s after stimulus onset. […]

Structure (SMILES): N [Ammonia+100, Ammonia]
- Attractiveness of finger scent plus compound against pure finger (FIG. 4 A, highly attractive person): less attractive

Structure (SMILES): CC(=O)O [acetic acid, Acetic acid]
- Attractiveness of finger scent plus compound against pure finger (up to 50-fold higher concentration than in the standard blend, any of the persons): did not change the attractiveness

Structure (SMILES): CCCCCC(=O)O [capronic acid, Caproic acid]
- Attractiveness of finger scent plus compound against pure finger (FIG. 4 C, low attractive person, all concentrations): more attractive
